Laboratory results published in article PMC11096368, “Transcriptomic signature, bioactivity and safety of a non-hepatotoxic analgesic generating AM404 in the midbrain PAG region” (Scientific Reports, 2024).

Columns and labels:
[1] = test system: healthy volunteers; assay: Phase 1 trial safety and tolerability; assay type: in vivo, human; details: for Clinically significant abnormality (N): Adverse events / Clinically significant abnormality (N): Clinical chemistry / Clinically significant abnormality (N): ECG / Clinically significant abnormality (N): Physical exam / Clinically significant abnormality (N): Urinalysis / Clinically significant abnormality (N): Vital signs / Clinically significant abnormality (N): pharHematology: n = 6
Experimental: A randomized, double-blind, placebo-controlled Phase 1 trial (ClinicalTrials.gov identifier: NCT05484414) (02/08/2022) was conducted to assess the safety, tolerability, food effect, pharmacokinetics (PK), and pharmacodynamics (PD) of single and multiple ascending doses of SRP-001 (Quotient Sciences, Miami FL USA; Fig. 3h - k and Methods). The trial was conducted in accordance with the International Council for Harmonisation of Technical Requirements for Pharmaceuticals for Human Use (ICH), Guideline for GCP: Consolidated Guidance (E6), attained Institutional Review Board approval, and all applicable regulatory requirements for Phase 1, First in Human clinical trials. Safety measurements and plasma samples to determine PK parameters were collected throughout the study for all subjects and reviewed by the Safety Review Committee. PK stopping criteria were established to assure that systemic exposure to SRP-001 was less than or equal to the systemic exposure achieved at the NOAEL doses in the 28-day repeat-dose toxicology studies in the rat and dog. The trial’s Safety Advisory Committee has approved the publication of the Phase 1 results.
SRP-001 was administered as an oral nanosuspension to 56 healthy volunteers across five Single Ascending Dose (SAD) and two Multiple Ascending Dose (MAD) cohorts, with 42 subjects receiving SRP-001 and 14 receiving a placebo.
A two-part randomized, double-blind, placebo-controlled Phase 1 trial was conducted to assess the safety, tolerability, PK and PD of SRP-001 ascending doses (Quotient Sciences, Miami, FL, USA). The study was conducted in accordance with the International Council for Harmonisation of Technical Requirements for Pharmaceuticals for Human Use (ICH), Guideline for GCP: Consolidated Guidance (E6), and applicable regulatory requirements(s) including clinical research guidelines established by the Basic Principles defined in the U.S. 21 CFR Parts 50, 56, and 312 and the principles enunciated in the Declaration of Helsinki (revised version Fortaleza 2013). The clinical protocol and informed consent form were reviewed and approved by an Institutional Review Board (IRB; Advarra IRB, 6100 Merriweather Drive, Suite 600, Columbia, MD 21,044; Quotient Protocol No. SRP-101 and Quotient Sciences Study No. QSC205130; Quotient Sciences Miami, 3898 NW 7th Street, Miami, FL 33,126.). The study comprises a SAD (Part 1) assessment that includes a food effect assessment that contributes data to inform a subsequent MAD (Part 2) dose-ranging study. Safety measurements were collected throughout the study for all subjects. Blood samples were collected to determine the PK parameters of SRP-001 (ClinicalTrials.gov identifier: NCT05484414) (02/08/2022).
NHVs also underwent continuous ECG Holter monitoring from at least 1 h prior to dosing until 24 h post-dose, and resulting measurements were monitored consistently. All ECGs were collected electronically using a Mortara H12 + Holter monitor. Specific procedures for ECG Holter recording and extractions were provided to the Investigator by the Central ECG Laboratory, Banook Group. On Day 1, continuous Holter recording commenced at least 1 h prior to dosing until 24 h post-dose. Subjects were required to rest in the supine position with no external stimuli (e.g. music or television) for 15 min prior to the nominal time point where an ECG extraction was scheduled. This extraction was taken by the third-party Holter provider at the planned time, and therefore, no other procedures were performed within the resting period. […] Subjects were allowed to move more freely outside of the primary ECG rest periods. Comfort breaks for hygienic purposes were allowed each morning well in advance of the required supine/ECG extraction points. […]

[2] = 5-day repeat-dose oral toxicity and toxicokinetic study (non-GLP); assay type: in vivo, rats; details: Sprague-Dawley, rat, blood, po
Experimental: (§1) As part of a two-phase study, repeat-dose toxicity and toxicokinetics of SRP-001, when administered via oral gavage once daily to Sprague–Dawley rats for 5 d, was done (Calvert Labs/Altasciences, Scott Township, PA USA). The doses selected for Phase II were based on the results of Phase I. SRP-001 was administered to 20 naïve rats (5/group in Groups 5–8) once daily for 5 days via oral gavage for toxicology evaluation and once to 18 naïve rats (6/group in Groups 9–11) for toxicokinetic evaluation.
(§2) Mortality/morbidity was performed twice daily and once prior to sacrifice. Clinical observations were evaluated prior to each dose administration and approximately 1–3 h post-dose for animals in Groups 5–8. Body weights were recorded prior to randomization/selection, prior to dose administration on day 1 for animals in Groups 5–11, and prior to dose administration on day 5 for Groups 5–8. Food consumption was recorded for animals from Groups 5–8 on day 5. Blood for evaluation of hematology, coagulation and clinical chemistry and urine for urinalysis was collected from animals in Groups 5–8 on day 6. All animals in Groups 5–8 were sacrificed on […]. Selected tissues were harvested at necropsy, selected organs weighed, and selected tissues preserved. Blood for toxicokinetic evaluation was collected from animals in Groups 9–11 at selected timepoints on day 1 to ensure comprehensive data capture. These timepoints include 0 h (pre-dose) and post-dose intervals of 1, 2, 4, 8, and 24 h on both Day 1 and […] of the study. This schedule allows for a robust assessment of SRP-001's pharmacokinetic profile, including absorption, distribution, metabolism, and excretion and is in line with current FDA-guidelines for GLP studies.
(§3) Clinical signs included soft feces, brown staining of the anogenital area, and a few instances of red staining of the muzzle. […] Half-lives were 6.19 and 6.86 h at mid and high doses, respectively. […] Based on these observations, SRP-001 was considered to be tolerated at 1200 mg/kg when administered once daily for 5 consecutive days.

[3] = test system: Sprague–Dawley rats; assay: as above; assay type: in vivo
Experimental: as §1, §2, §3

[4] = Cohort 1 (Regimen A), 300 mg SRP-001, Fasted
[5] = Cohort 2 (Regimen B), 600 mg SRP-001, Fasted
[6] = Cohort 3 (Regimen C), 900 mg SRP-001, Fasted
[7] = Cohort 4 (Regimen E), 2000 mg SRP-001, Fasted

## CCN(CC)C(=O)c1ccccc1S(=O)(=O)NCC(=O)Nc1ccc(O)cc1 [SRP-001, N,N-diethyl-2-[[2-(4-hydroxyanilino)-2-oxo-ethyl]sulfamoyl]benzamide]
[1]; [4]
  Clinically significant abnormality (N): Adverse events: 0
  Clinically significant abnormality (N): Clinical chemistry: 0
  Clinically significant abnormality (N): ECG: 0
  Clinically significant abnormality (N): Physical exam: 0
  Clinically significant abnormality (N): Urinalysis: 0
  Clinically significant abnormality (N): Vital signs: 0
  Clinically significant abnormality (N): pharHematology: 0
[1]; [5]
  Clinically significant abnormality (N): Adverse events: 0
  Clinically significant abnormality (N): Clinical chemistry: 0
  Clinically significant abnormality (N): ECG: 0
  Clinically significant abnormality (N): Physical exam: 0
  Clinically significant abnormality (N): Urinalysis: 0
  Clinically significant abnormality (N): Vital signs: 0
  Clinically significant abnormality (N): pharHematology: 0
[1]; [6]
  Clinically significant abnormality (N): Adverse events: 0
  Clinically significant abnormality (N): Clinical chemistry: 0
  Clinically significant abnormality (N): ECG: 0
  Clinically significant abnormality (N): Physical exam: 0
  Clinically significant abnormality (N): Urinalysis: 0
  Clinically significant abnormality (N): Vital signs: 0
  Clinically significant abnormality (N): pharHematology: 0
[1]; [7]
  Clinically significant abnormality (N): Adverse events: 0
  Clinically significant abnormality (N): Clinical chemistry: 0
  Clinically significant abnormality (N): ECG: 0
  Clinically significant abnormality (N): Physical exam: 0
  Clinically significant abnormality (N): Urinalysis: 0
  Clinically significant abnormality (N): Vital signs: 0
  Clinically significant abnormality (N): pharHematology: 0
[1]; Phase 1 MAD cohort
  Emesis: no emesis
[1]; SAD and MAD cohorts
  Safety assessments (vital signs, physical examinations, continuous ECG, laboratory tests): revealed no abnormalities
[1]; five SAD and two MAD cohorts, 42 subjects receiving SRP-001
  Serious adverse events (SAEs): no serious adverse events (SAEs) reported
[1]; oral nanosuspension, SAD and MAD cohorts
  Tolerability: well tolerated
[2]; high dose
  half-life: 6.86 h
[2]; low dose
  Tmax: 3 h
[2]; mid and high doses
  Tmax: 4.5 h
[2]; mid dose
  half-life: 6.19 h
[3]; day 1
  AUC and Cmax levels versus dose: increased in a dose-dependent manner
[3]; once daily for 5 consecutive days
  Dose considered to be tolerated: 1200 mg/kg
[3]; once daily for 5 days
  Liver weights and cholesterol levels: Test article-related increases
